From US20220331348A1, “METHOD OF PREPARING PENTACYCLIC TRITERPENOID SAPONINS AND DRUG COMPOSITION” (CHINA PHARMACEUTICAL UNIVERSITY, priority 2019, published 2022)

Tests used:
[1] = system: CCl4-induced hepatic fibrosis mice; experiment: CCl4-induced hepatic fibrosis mice; assay type: in vivo, mouse; settings: for MMP2 gene expression / TGF-β gene expression / collagen 1 gene expression: CCl4-induced hepatic fibrosis mice, 5 mg/Kg, n = 8
Procedure: Animal: 32 C57BL/6J male mice of SPF level with 25 g were purchased from Beijing Vital River Laboratory Animal Technology Co., Ltd. All the animals maintained 12 h alternative circadian rhythm with free access to food.
Reagent: the ginsenoside Ro was purchased from Shanghai Boka Chemistry Technology Co., Ltd; CCl4 was purchased from sigma Company; and sunflower seed oil was purchased from Nanjing Yuanye Biotechnology Co., Ltd.
The mice were randomly divided into 4 groups based on weights: a blank control group (CTL), a model group (CCl4), a ginsenoside Ro low-dosage group (Low) (5 mg/kg) and a ginsenoside Ro high-dosage group (High) (10 mg/kg), totally 4 groups (with 8 mice each).
A modeling mode was that the mice were given with a CCl4-contained sunflower seed oil solution (with a CCl4 content of 25%, v/v) in a dosage of 2mL/kg by intraperitoneal injection, and the mice in the control group were injected with a corresponding dosage of the sunflower seed oil solution two times per week. From experiment day 1 onward, the mice in the control group were given with a CMC-Na solution with the mass fraction of 0.5% intragastrically every day and with sunflower seed oil two times per week by intraperitoneal injection; the mice in the model group were given with the CMC-Na solution with the mass fraction of 0.5% intragastrically every day and with the CCl4-contained sunflower seed oil solution two times per week by intraperitoneal injection; the mice in the ginsenoside Ro low-dosage group (Low) were given with 5 mg/kg of the ginsenoside Ro intragastrically every day and with a CCl4 solution two times per week by intraperitoneal injection; and the mice in the ginsenoside Ro high-dosage group (High) were given with 10 mg/kg of the ginsenoside Ro intragastrically every day and with the CCl4-contained sunflower seed oil solution two times per week by intraperitoneal injection. Administration was conducted for a total of 4 weeks.
The mice were deprived of food but not water for 12 h in advance; and the next morning, blood was taken from eyeballs, the mice were sacrificed, and livers were harvested. Right liver lobule tissues were fixed with 4% paraformaldehyde for HE stained slicing. The rest liver tissues were divided into 3 parts, which were snap-frozen in liquid nitrogen for subsequent detection of other indexes.
Whole blood was left to still standing for 2 h at room temperature, centrifugation was conducted for 15 min at 3000 rpm, and a serum was collected and sent to Pathologic Department of Hospital of Integrated Traditional Chinese and Western Medicine in Jiangsu Province for determination of levels of glutamic oxalacetic transaminase (AST) and glutamic-pyruvic transaminase (ALT) in the serum with a full-automatic biochemical analyzer.
Pretreated tissues were sent to Google Biotechnology Co., Ltd for preparing HE stained slices.
6. Extraction of Liver Tissue RNA and q-PCR Detection Liver tissues preserved at −80° C. were put in the liquid nitrogen, about 10 mg of the liver tissues were quickly dissected out, about 500 μL of a precooled Trizol reagent was added, the tissues were homogenized with the homogenizer and then left to lyse on the ice for 15 min, 100 μL of chloroform was added for vigorous shaking for 15 s, and a product was put on the ice for 10 min and then was subjected to centrifugation for 15 min at 4° C. and 12000 rpm. An upper aqueous phase was transferred to a clean 1.5 mL EP tube, […] of isopropanol was added for RNA precipitation, the EP tube was put on the ice for 10 min and then was subjected to centrifugation for 10 min at 4° C. and 12000 rpm. The supernate was discarded, precipitates were washed one time with 75% ethyl alcohol, a supernate was discarded after centrifugation, and precipitates of
RNA dissolved with the water were treated with 40 mL of DEPC. […]

[2] = system: AMPK and mTOR signaling pathways in polycystic kidney epithelial cells; experiment: Western blot of AMPK and proliferation-related signal molecules in polycystic kidney epithelial cells; assay type: cell-based, human; settings: 10 μM, 48 h, Western blot (FIG. 16)
Text: Cell and reagent: complete media for human ADPKD cyst lining epithelial cell lines WT9-12 and DMEM were purchased from ATCC Company; fetal calf serums were purchased from Gibco Company; Cell Counting Kit-8 was purchased from DOJINDO Company; Click-iT® EdU Imaging Kits were purchased from Invitrogen™ Thermo Fisher Scientific Company; Caspase -3/CPP32 Colorimetric Assay Kit was purchased from BioVision Company; Annexin V/PI double-staining flow type cell apoptosis detection kits were purchased from Bender Company; and anti-Phospho-(AMPKa, mTOR, p70S6K, 4E-BP1) antibodies were purchased from Cell Signaling Technology Company.
Detection on protein expression with Western blot: cells in the control group and the treatment group (intervening the polycystic kidney epithelial cell with 10 μM of asperosaponin VI for 48 h) were collected, cells were lysed with a RIPA lysate for extraction of total proteins, the concentration of proteins was detected with a BCA method, and […] of sample proteins were taken for sample addition in sequence; after SDS-PAGE electrophoresis, the sample proteins were transferred onto PVDF membranes at a constant current (I=250 mA), were blocked for 1 h with 5% BSA and were incubated for 24 h with different primary antibodies; after the membranes were washed four times with TBST, incubation was conducted for 1.5 h at a normal temperature by using HRP-labeled second antibodies (1:10000); and after the membranes were washed four times with TBST, the proteins were developed with an ECL, and protein bands of various groups were subjected to gray scale analysis with an Image-J gel image analysis software.

[3] = CCl4 mice liver, 5 mg/kg and 10 mg/kg, 4 weeks, q-PCR (FIG. 9)
[4] = CCl4 mice, low-dosage 5 mg/kg and high-dosage 10 mg/kg intragastrically every day, 4 weeks (FIG. 8)

Compound	hepatic fibrosis induced by CCl4 ([1]; CCl4 mice, summary in words)	MMP2 gene expression [1]	TGF-β gene expression [1]	collagen 1 gene expression [1]	also measured
CC1(C)CC[C@]2(C(=O)O[C@@H]3O[C@H](CO)[C@@H](O)[C@H](O)[C@H]3O)CC[C@]3(C)C(=CC[C@@H]4[C@@]5(C)CC[C@H](O[C@@H]6O[C@H](C(=O)O)[C@@H](O)[C@H](O)[C@H]6O[C@@H]6O[C@H](CO)[C@@H](O)[C@H](O)[C@H]6O)C(C)(C)[C@@H]5CC[C@]43C)[C@@H]2C1 [(I), ginsenoside Ro]	significantly inhibit				mRNA expression level of -SMA [1, 3]: significantly lowered; mRNA expression level of MMP2 [1, 3]: significantly lowered; mRNA expression level of TGF [1, 3]: significantly lowered; mRNA expression level of collagen 1 [1, 3]: significantly lowered; level of the ALT in the serum [1, 4]: significantly lowered; level of the AST in the serum [1, 4]: significantly lowered; inflammatory responses of hepatic fibrosis animal models ([1]; CCl4 mice, summary in words): significantly inhibit
CC1(C)CC[C@]2(C(=O)O[C@@H]3O[C@H](CO[C@@H]4O[C@H](CO)[C@@H](O)[C@H](O)[C@H]4O)[C@@H](O)[C@H](O)[C@H]3O)CC[C@]3(C)C(=CC[C@@H]4[C@@]5(C)CC[C@H](O[C@@H]6OC[C@H](O)[C@H](O)[C@H]6O)[C@@](C)(CO)[C@@H]5CC[C@]43C)[C@@H]2C1 [(II), asperosaponin VI]					phosphorylation level of 4E-BP1 [2]: lowered; phosphorylation level of AMPKa [2]: increased; phosphorylation level of mTOR [2]: lowered; phosphorylation level of p70S6K [2]: lowered
C[C@@H]1O[C@@H](O[C@H]2[C@H](O[C@H]3CC[C@@]4(C)[C@@H](CC[C@]5(C)[C@@H]4CC=C4[C@@H]6CC(C)(C)CC[C@]6(C(=O)O)CC[C@]45C)[C@]3(C)CO)OC[C@H](O)[C@@H]2O)[C@H](O)[C@H](O)[C@H]1O [(X), α-hederin]	effectively inhibit	6.37 ± 5.73 fold induction compared with the control group	2.75 ± 0.99 fold induction compared with the control group	7.93 ± 2.28 fold induction compared with the control group	
C[C@@H]1O[C@@H](O[C@H]2[C@H](O[C@H]3CC[C@@]4(C)[C@@H](CC[C@]5(C)[C@@H]4CC=C4[C@@H]6CC(C)(C)CC[C@]6(C(=O)O[C@@H]6O[C@H](CO[C@@H]7O[C@H](CO)[C@@H](O[C@@H]8O[C@@H](C)[C@H](O)[C@@H](O)[C@H]8O)[C@H](O)[C@H]7O)[C@@H](O)[C@H](O)[C@H]6O)CC[C@]45C)[C@]3(C)CO)OC[C@H](O)[C@@H]2O)[C@H](O)[C@H](O)[C@H]1O [(XI), hederacoside C]	effectively inhibit	7.65 ± 4.03 fold induction compared with the control group	2.96 ± 1.01 fold induction compared with the control group	8.07 ± 3.27 fold induction compared with the control group	
C[C@@H]1CC[C@]2(C(=O)O[C@@H]3O[C@H](CO)[C@@H](O)[C@H](O)[C@H]3O)CC[C@]3(C)C(=CC[C@@H]4[C@@]5(C)CC[C@H](O[C@@H]6OC[C@H](O)[C@H](O)[C@H]6O)C(C)(C)[C@@H]5CC[C@]43C)[C@@H]2[C@]1(C)O [(XII), ziyuglycoside I]	effectively inhibit	8.38 ± 3.86 fold induction compared with the control group	2.91 ± 1.10 fold induction compared with the control group	7.65 ± 2.43 fold induction compared with the control group	
C[C@@H]1CC[C@]2(C(=O)O)CC[C@]3(C)C(=CC[C@@H]4[C@@]5(C)CC[C@H](O[C@@H]6OC[C@H](O)[C@H](O)[C@H]6O)C(C)(C)[C@@H]5CC[C@]43C)[C@@H]2[C@]1(C)O [(XIII), ziyuglycoside II]	effectively inhibit	7.38 ± 3.48 fold induction compared with the control group	3.03 ± 0.76 fold induction compared with the control group	8.16 ± 3.37 fold induction compared with the control group	
